These results are taken from patent publication US12540131B2 (Merck Sharp & Dohme LLC, priority 2019, dated 2026).

Molecules are shown by their SMILES. Bounds are passed on as bounds.

Sequence of GST tagged truncated human mutant G2019S LRRK2 (Q5S007 970-2527 G2019S): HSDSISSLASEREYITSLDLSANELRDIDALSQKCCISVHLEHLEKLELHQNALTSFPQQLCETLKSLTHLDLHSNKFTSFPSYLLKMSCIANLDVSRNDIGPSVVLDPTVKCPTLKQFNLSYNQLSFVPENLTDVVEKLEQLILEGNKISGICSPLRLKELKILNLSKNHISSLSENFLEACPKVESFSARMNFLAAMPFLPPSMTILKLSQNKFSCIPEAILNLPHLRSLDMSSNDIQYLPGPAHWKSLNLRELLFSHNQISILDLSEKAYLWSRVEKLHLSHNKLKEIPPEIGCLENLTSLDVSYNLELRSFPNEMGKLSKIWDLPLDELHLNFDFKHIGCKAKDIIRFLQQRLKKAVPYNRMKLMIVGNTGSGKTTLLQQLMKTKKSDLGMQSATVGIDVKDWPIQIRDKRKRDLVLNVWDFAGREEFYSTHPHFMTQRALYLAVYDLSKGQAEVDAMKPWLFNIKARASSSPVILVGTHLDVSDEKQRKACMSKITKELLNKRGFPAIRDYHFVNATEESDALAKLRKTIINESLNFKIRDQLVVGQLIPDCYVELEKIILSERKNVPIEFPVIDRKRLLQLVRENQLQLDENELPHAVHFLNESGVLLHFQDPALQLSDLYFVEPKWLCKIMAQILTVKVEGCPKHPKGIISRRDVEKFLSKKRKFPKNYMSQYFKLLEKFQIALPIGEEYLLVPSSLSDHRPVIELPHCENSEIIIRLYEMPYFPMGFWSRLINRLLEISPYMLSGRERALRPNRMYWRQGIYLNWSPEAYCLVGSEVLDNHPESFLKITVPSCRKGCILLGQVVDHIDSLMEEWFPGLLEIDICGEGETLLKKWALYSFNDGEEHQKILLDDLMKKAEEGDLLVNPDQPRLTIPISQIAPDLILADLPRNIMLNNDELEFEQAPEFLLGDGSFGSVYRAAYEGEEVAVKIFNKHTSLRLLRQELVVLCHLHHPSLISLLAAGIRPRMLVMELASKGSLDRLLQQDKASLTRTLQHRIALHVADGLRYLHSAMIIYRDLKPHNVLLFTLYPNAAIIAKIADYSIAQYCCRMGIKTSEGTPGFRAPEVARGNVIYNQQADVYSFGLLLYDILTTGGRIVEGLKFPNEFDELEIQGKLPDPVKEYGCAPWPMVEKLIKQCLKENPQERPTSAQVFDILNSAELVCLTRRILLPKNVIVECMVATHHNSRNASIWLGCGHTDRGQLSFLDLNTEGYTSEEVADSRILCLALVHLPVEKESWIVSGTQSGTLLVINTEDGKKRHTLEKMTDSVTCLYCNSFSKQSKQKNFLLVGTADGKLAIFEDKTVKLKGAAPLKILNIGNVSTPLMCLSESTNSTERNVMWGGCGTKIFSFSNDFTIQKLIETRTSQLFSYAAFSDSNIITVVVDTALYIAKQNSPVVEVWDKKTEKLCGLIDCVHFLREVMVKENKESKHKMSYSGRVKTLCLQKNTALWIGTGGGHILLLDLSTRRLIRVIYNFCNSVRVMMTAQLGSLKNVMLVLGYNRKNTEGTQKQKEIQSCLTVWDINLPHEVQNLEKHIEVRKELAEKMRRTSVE

The first experiment concerns the target GST tagged truncated human mutant G2019S LRRK2 (Homo sapiens (Human), UniProt Q5S007, G2019S). Briefly: LRRK2 Km ATP LanthaScreen Assay. Particulars: G2019S LRRK2, 134 μM ATP (Km ATP), mean values. The format is biochemical. The procedure, abridged: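 Enzyme (GST-tagged, truncated) was preincubated with compound for 15 min at RT in 50 mM Tris pH 8.5, 10 mM MgCl2, 0.01% Brij-35, 1 mM EGTA, 2 mM DTT and 0.05 mM orthovanadate. Fluorescein-LRRKtide and 134 μM ATP (Km) were then added for 90 min. EDTA and Tb-anti-pERM antibody stopped the reaction; the TR-FRET 520/495 ratio gave 4-parameter IC50s, reported as mean pIC50.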
(TR-FRET usually uses a lanthanide donor and a delayed reading to cut background.)
Take `Cc1c(Nc2ncc3cc(Cl)c(C4CCN(C5COC5C)CC4)cc3n2)cnn1C(C)(C)C#N` (single isomer, unassigned) [Ex-4.133, (2R,3R) or (2S,3S) or (2S,3R) or (2R,3S) 2-[4-({6-chloro-7-[1-(2-methyloxetan-3-yl)piperidin-4-yl]quinazolin-2-yl}amino)-5-methyl-1H-pyrazol-1-yl]-2-methylpropanenitrile]: the “LRRK2 pIC50” value is 8.92.

Take `Cc1cc2cnc(Nc3cnn(C4CC4)c3C)nc2cc1C1CCN([C@@H]2COC[C@@H]2O)CC1` (single isomer, unassigned) [Ex-5.7, (3S,4S) or (3R,4R) 4-(4-{2-[(1-cyclopropyl-5-methyl-1H-pyrazol-4-yl)amino]-6-methylquinazolin-7-yl}piperidin-1-yl)oxolan-3-ol]: the “LRRK2 pIC50” value was greater than 9.20.

`Cc1cc2cnc(Nc3cnn(C45CC(C4)C5)c3Cl)nc2cc1[C@@H]1CCN([C@@H]2COC[C@@H]2O)C[C@H]1F` (single isomer, unassigned) [Ex-8.33, (3S,4S)(3S,4S) or (3S,4S)(3R,4R) or (3R,4R)(3S,4S) or (3R,4R)(3R,4R) 4-[4-(2-{[1-(bicyclo[1.1.1]pentan-1-yl)-5-chloro-1H-pyrazol-4-yl]amino}-6-methylquinazolin-7-yl)-3-fluoropiperidin-1-yl]oxolan-3-ol]: the “LRRK2 pIC50” value was greater than 9.20.

For the molecule `CC(C)(O)Cn1ncc(Nc2ncc3cc(Cl)c(C4(F)CCN(C5COC5)CC4)cc3n2)c1Cl` [Ex-4.86, 1-[5-chloro-4-({6-chloro-7-[4-fluoro-1-(oxetan-3-yl)piperidin-4-yl]quinazolin-2-yl}amino)-1H-pyrazol-1-yl]-2-methylpropan-2-ol], the “LRRK2 pIC50” value was 8.09.

As for `Cc1c(Nc2ncc3cc(Cl)c(C4CCN(C[C@@H](O)c5cc(F)ccc5F)CC4)cc3n2)cnn1C1CC1` [Ex-4.205, (1S)-2-(4-{6-chloro-2-[(1-cyclopropyl-5-methyl-1H-pyrazol-4-yl)amino]quinazolin-7-yl}piperidin-1-yl)-1-(2,5-difluorophenyl)ethan-1-ol], the “LRRK2 pIC50” value was 8.40.

On to `[2H]C([2H])([2H])n1ncc(Nc2ncc3cc(Cl)c(C4CCN(C5(C)COC5)CC4)cc3n2)c1Cl` [Ex-2.72, 6-chloro-N-(5-chloro-1-(methyl-d3)-1H-pyrazol-4-yl)-7-(1-(3-methyloxetan-3-yl)piperidin-4-yl)quinazolin-2-amine], for which the “LRRK2 pIC50” value was 8.90.

For the molecule `Cc1cc2cnc(Nc3cnn(C4CC4)c3C)nc2cc1C1CCN([C@]2(C)COC[C@@H]2O)CC1` (single isomer, unassigned) [Ex-2.39, (3S,4S) or (3R,4R) 4-(4-{2-[(1-cyclopropyl-5-methyl-1H-pyrazol-4-yl)amino]-6-methylquinazolin-7-yl}piperidin-1-yl)-4-methyloxolan-3-ol], the “LRRK2 pIC50” value was 8.09.

Turning to `Cc1cc2cnc(Nc3cnn(C4CC4)c3Cl)nc2cc1[C@@H]1CCN(C2COC2)C[C@H]1F` (single isomer, unassigned) [Ex-4.82, (3S,4S) or (3R,4R) N-(5-chloro-1-cyclopropyl-1H-pyrazol-4-yl)-7-[3-fluoro-1-(oxetan-3-yl)piperidin-4-yl]-6-methylquinazolin-2-amine], the “LRRK2 pIC50” value is greater than 9.20.

As for `Cc1c(Nc2ncc3cc(Cl)c(C4CCN([C@@H]5COC[C@@H]5O)CC4)cc3n2)cnn1C1CC1(F)F` (single isomer, unassigned) [Ex-4.182, (R)(3S,4S) or (S)(3S,4S) or (R)(3R,4R) or (S)(3R,4R) 4-[4-(6-chloro-2-{[1-(2,2-difluorocyclopropyl)-5-methyl-1H-pyrazol-4-yl]amino}quinazolin-7-yl)piperidin-1-yl]oxolan-3-ol], the “LRRK2 pIC50” value is greater than 9.20.

Turning to `Cc1cc2cnc(Nc3cnn(C)c3Cl)nc2cc1C1CCN([C@]2(C)COC[C@@H]2O)CC1` (single isomer, unassigned) [Ex-2.80, (3S,4S) or (3R,4R) 4-(4-{2-[(5-chloro-1-methyl-1H-pyrazol-4-yl)amino]-6-methylquinazolin-7-yl}piperidin-1-yl)-4-methyloxolan-3-ol], the “LRRK2 pIC50” value worked out at 7.14.

With `CC1(O)CCC(c2cc3nc(Nc4cnn(C5CC5)c4)ncc3cc2Cl)CC1` (stereo not drawn) [Ex-1.18, cis-or trans-4-(6-chloro-2-((1-cyclopropyl-1H-pyrazol-4-yl)amino)quinazolin-7-yl)-1-methylcyclohexan-1-ol], the “LRRK2 pIC50” value was 8.59.

As for `Cc1cc2cnc(Nc3cnn(C)c3Cl)nc2cc1[C@@H]1CCN([C@@H]2COC[C@@H]2O)C[C@H]1F` (single isomer, unassigned) [Ex-4.259, (3S,4S)(3S,4S) or (3S,4S)(3R,4R) or (3R,4R)(3S,4S) or (3R,4R)(3R,4R) 4-(4-(2-((5-chloro-1-methyl-1H-pyrazol-4-yl)amino)-6-methylquinazolin-7-yl)-3-fluoropiperidin-1-yl)tetrahydrofuran-3-ol], the “LRRK2 pIC50” value was greater than 9.20.

With `Clc1cc2cnc(Nc3cnn(CC4CC4)c3Cl)nc2cc1C1CCN(C2COC2)CC1` [Ex-4.16, 6-chloro-N-[5-chloro-1-(cyclopropylmethyl)-1H-pyrazol-4-yl]-7-[1-(oxetan-3-yl)piperidin-4-yl]quinazolin-2-amine], the “LRRK2 pIC50” value is reported as greater than 9.20.

For the molecule `Cc1cc2cnc(Nc3cnn(C45CC(C4)C5)c3C)nc2cc1[C@@H]1CCN([C@@H]2COC[C@@H]2O)C[C@H]1F` (single isomer, unassigned) [Ex-4.165, (3S,4S)(3S,4S) or (3S,4S)(3R,4R) or (3R,4R)(3S,4S) or (3R,4R)(3R,4R) 4-[4-(2-{[1-(bicyclo[1.1.1]pentan-1-yl)-5-methyl-1H-pyrazol-4-yl]amino}-6-methylquinazolin-7-yl)-3-fluoropiperidin-1-yl]oxolan-3-ol], the “LRRK2 pIC50” value stood at 8.67.

For `N#Cc1cc2cnc(Nc3cnn(C4CC4(F)F)c3Cl)nc2cc1[C@@H]1CCN(C2COC2)C[C@H]1F` (single isomer, unassigned) [Ex-6.4, (R)(3S,4S) or (S)(3S,4S) or (R)(3R,4R) or (S)(3R,4R) 2-((5-chloro-1-(2,2-difluorocyclopropyl)-1H-pyrazol-4-yl)amino)-7-(3-fluoro-1-(oxetan-3-yl)piperidin-4-yl)quinazoline-6-carbonitrile], the “LRRK2 pIC50” value is recorded as 9.18.

As for `F[C@@H]1CN(C2COC2)C[C@H]1c1cc2nc(Nc3cnn(C4CC4)c3Cl)ncc2cc1Cl` (single isomer, unassigned) [Ex-4.42, (3S,4R) or (3R,4S) 6-chloro-N-(5-chloro-1-cyclopropyl-1H-pyrazol-4-yl)-7-[4-fluoro-1-(oxetan-3-yl)pyrrolidin-3-yl]quinazolin-2-amine], the “LRRK2 pIC50” value came out at 7.21.

Take `Cc1c(Nc2ncc3cc(Cl)c(C4CCN(C[C@H](O)c5cc(F)ccc5F)CC4)cc3n2)cnn1C1CC1` [Ex-4.204, (1R)-2-(4-{6-chloro-2-[(1-cyclopropyl-5-methyl-1H-pyrazol-4-yl)amino]quinazolin-7-yl}piperidin-1-yl)-1-(2,5-difluorophenyl)ethan-1-ol]: the “LRRK2 pIC50” value came to 7.67.

`COC(C)(C)Cn1ncc(Nc2ncc3cc(Cl)c(C4CCN(C5COC5)CC4)cc3n2)c1C` [Ex-2.14, 6-chloro-N-[1-(2-methoxy-2-methylpropyl)-5-methyl-1H-pyrazol-4-yl]-7-[1-(oxetan-3-yl)piperidin-4-yl]quinazolin-2-amine]: the “LRRK2 pIC50” value came to 9.17.

The same experiment, now with this note: G2019S LRRK2, 134 μM ATP (Km ATP), mean values; read-out: LRRK2 pIC50 (converted).
In the case of `Cc1c(Nc2ncc3cc(Cl)c(C4CCN(CC(O)Cc5ccccc5)CC4)cc3n2)cnn1C1CC1` (single isomer, unassigned) [Ex-4.218, (S) or (R) 1-(4-{6-chloro-2-[(1-cyclopropyl-5-methyl-1H-pyrazol-4-yl)amino]quinazolin-7-yl}piperidin-1-yl)-3-phenylpropan-2-ol], the IC50 is 13.8 nM.
